Data taken from PubChem BioAssay (NCI).
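Briefly, cells in 96-well plates were exposed to five compound concentrations for 48 h, and endpoints were estimated by linear interpolation. Here, GI50 denotes the concentration required for 50% inhibition of growth. TGI is the concentration that stops growth completely.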

Experiments:
Test in all cases: growth of human tumour cells (NCI), 48 h
MCF7 breast = tested on: MCF7 breast
NCI-H460 lung = tested on: NCI-H460 lung
SK-OV-3 ovarian = tested on: SK-OV-3 ovarian
CCRF-CEM leukemia = tested on: CCRF-CEM leukemia
SR leukemia = tested on: SR leukemia
HOP-62 NSCLC = tested on: HOP-62 NSCLC
SNB-19 CNS = tested on: SNB-19 CNS
SNB-75 CNS = tested on: SNB-75 CNS
SF-295 CNS = tested on: SF-295 CNS
A549 NSCLC = tested on: A549 NSCLC
A498 renal = tested on: A498 renal
HS 578T breast = tested on: HS 578T breast
NCI-H226 lung = tested on: NCI-H226 lung
EKVX NSCLC = tested on: EKVX NSCLC
HT29 colon = tested on: HT29 colon
KM12 colon = tested on: KM12 colon
UACC-257 melanoma = tested on: UACC-257 melanoma
HCT-116 colon = tested on: HCT-116 colon
UACC-62 melanoma = tested on: UACC-62 melanoma
HOP-92 NSCLC = tested on: HOP-92 NSCLC
MDA-MB-435 = tested on: MDA-MB-435
NCI/ADR-RES ovarian = tested on: NCI/ADR-RES ovarian
NCI-H23 lung = tested on: NCI-H23 lung
SF-539 CNS = tested on: SF-539 CNS
UO-31 renal = tested on: UO-31 renal
OVCAR-4 ovarian = tested on: OVCAR-4 ovarian
HCT-15 colon = tested on: HCT-15 colon
HL-60(TB) leukemia = tested on: HL-60(TB) leukemia
SK-MEL-28 melanoma = tested on: SK-MEL-28 melanoma
HCC-2998 colon = tested on: HCC-2998 colon
MALME-3M melanoma = tested on: MALME-3M melanoma
COLO 205 colon = tested on: COLO 205 colon
MOLT-4 leukemia = tested on: MOLT-4 leukemia
PC-3 prostate = tested on: PC-3 prostate
DU-145 prostate = tested on: DU-145 prostate
NCI-H522 lung = tested on: NCI-H522 lung
SW-620 colon = tested on: SW-620 colon
OVCAR-8 ovarian = tested on: OVCAR-8 ovarian
IGROV1 ovarian = tested on: IGROV1 ovarian
K-562 leukemia = tested on: K-562 leukemia
RPMI-8226 leukemia = tested on: RPMI-8226 leukemia
OVCAR-5 ovarian = tested on: OVCAR-5 ovarian
MDA-MB-231 breast = tested on: MDA-MB-231 breast
RXF 393 renal = tested on: RXF 393 renal
ACHN renal = tested on: ACHN renal
T-47D breast = tested on: T-47D breast
M14 melanoma = tested on: M14 melanoma
TK-10 renal = tested on: TK-10 renal
SK-MEL-2 melanoma = tested on: SK-MEL-2 melanoma
786-0 renal = tested on: 786-0 renal
SN12C renal = tested on: SN12C renal
SK-MEL-5 melanoma = tested on: SK-MEL-5 melanoma
SF-268 CNS = tested on: SF-268 CNS
OVCAR-3 ovarian = tested on: OVCAR-3 ovarian
BT-549 breast = tested on: BT-549 breast

O=C(/C=C(/C=C/c1csc2ccccc12)OB(F)F)/C=C/c1csc2ccccc12
GI50 (MCF7 breast): 1060 nM
TGI (MCF7 breast): > 50000 nM
GI50 (NCI-H460 lung): > 50000 nM
TGI (NCI-H460 lung): > 50000 nM
GI50 (SK-OV-3 ovarian): > 50000 nM
TGI (SK-OV-3 ovarian): > 50000 nM
GI50 (CCRF-CEM leukemia): 244 nM
TGI (CCRF-CEM leukemia): > 50000 nM
GI50 (SR leukemia): 230 nM
TGI (SR leukemia): > 50000 nM
GI50 (HOP-62 NSCLC): > 50000 nM
TGI (HOP-62 NSCLC): > 50000 nM
GI50 (SNB-19 CNS): 3620 nM
TGI (SNB-19 CNS): > 50000 nM
GI50 (SNB-75 CNS): 2790 nM
TGI (SNB-75 CNS): > 50000 nM
GI50 (SF-295 CNS): > 26200 nM
TGI (SF-295 CNS): > 50000 nM
GI50 (A549 NSCLC): > 50000 nM
TGI (A549 NSCLC): > 50000 nM
GI50 (A498 renal): > 50000 nM
TGI (A498 renal): > 50000 nM
GI50 (HS 578T breast): 2060 nM
TGI (HS 578T breast): > 50000 nM
GI50 (NCI-H226 lung): > 50000 nM
TGI (NCI-H226 lung): > 50000 nM

Clc1ccc2c(NCCNc3nc(Cl)nc4ccccc34)ccnc2c1
GI50 (EKVX NSCLC): 1790 nM
TGI (EKVX NSCLC): 3560 nM
GI50 (HT29 colon): 193 nM
TGI (HT29 colon): 377 nM
GI50 (NCI-H460 lung): 536 nM
TGI (NCI-H460 lung): 1830 nM
GI50 (SK-OV-3 ovarian): 1820 nM
TGI (SK-OV-3 ovarian): 3350 nM
GI50 (KM12 colon): 1610 nM
TGI (KM12 colon): 3170 nM
GI50 (UACC-257 melanoma): 1890 nM
TGI (UACC-257 melanoma): 3540 nM
GI50 (HCT-116 colon): 218 nM
TGI (HCT-116 colon): 531 nM
GI50 (UACC-62 melanoma): 1810 nM
TGI (UACC-62 melanoma): 3490 nM
GI50 (HOP-92 NSCLC): 1740 nM
TGI (HOP-92 NSCLC): 3400 nM
GI50 (MDA-MB-435): 1470 nM
TGI (MDA-MB-435): 2950 nM
GI50 (CCRF-CEM leukemia): 331 nM
TGI (CCRF-CEM leukemia): 1040 nM
GI50 (NCI/ADR-RES ovarian): 2500 nM
TGI (NCI/ADR-RES ovarian): 7240 nM
GI50 (NCI-H23 lung): 1830 nM
TGI (NCI-H23 lung): 3700 nM
GI50 (SF-539 CNS): 1600 nM
TGI (SF-539 CNS): 3120 nM
GI50 (SR leukemia): 268 nM
TGI (SR leukemia): 866 nM
GI50 (UO-31 renal): 1500 nM
TGI (UO-31 renal): 2940 nM
GI50 (OVCAR-4 ovarian): 323 nM
TGI (OVCAR-4 ovarian): 1220 nM
GI50 (HOP-62 NSCLC): 560 nM
TGI (HOP-62 NSCLC): 2090 nM
GI50 (HCT-15 colon): 1140 nM
TGI (HCT-15 colon): 2550 nM
GI50 (HL-60(TB) leukemia): 231 nM
TGI (HL-60(TB) leukemia): 656 nM
GI50 (SK-MEL-28 melanoma): 1780 nM
TGI (SK-MEL-28 melanoma): 3400 nM
GI50 (HCC-2998 colon): 1620 nM
TGI (HCC-2998 colon): 3180 nM
GI50 (MALME-3M melanoma): 1760 nM
TGI (MALME-3M melanoma): 3470 nM
GI50 (COLO 205 colon): 863 nM
TGI (COLO 205 colon): 2320 nM
GI50 (MOLT-4 leukemia): 332 nM
TGI (MOLT-4 leukemia): 1250 nM
GI50 (PC-3 prostate): 1600 nM
TGI (PC-3 prostate): 3120 nM
GI50 (DU-145 prostate): 1260 nM
TGI (DU-145 prostate): 2590 nM
GI50 (NCI-H522 lung): 1300 nM
TGI (NCI-H522 lung): 2760 nM
GI50 (SW-620 colon): 271 nM
TGI (SW-620 colon): 636 nM
GI50 (OVCAR-8 ovarian): 1490 nM
TGI (OVCAR-8 ovarian): 3340 nM
GI50 (IGROV1 ovarian): 1130 nM
TGI (IGROV1 ovarian): 2700 nM
GI50 (K-562 leukemia): 255 nM
TGI (K-562 leukemia): 614 nM
GI50 (SNB-75 CNS): 1640 nM
TGI (SNB-75 CNS): 3160 nM
GI50 (SF-295 CNS): 1750 nM
TGI (SF-295 CNS): 3260 nM
GI50 (RPMI-8226 leukemia): 279 nM
TGI (RPMI-8226 leukemia): 769 nM
GI50 (OVCAR-5 ovarian): 1620 nM
TGI (OVCAR-5 ovarian): 3090 nM
GI50 (MDA-MB-231 breast): 360 nM
TGI (MDA-MB-231 breast): 1210 nM
GI50 (RXF 393 renal): 1730 nM
TGI (RXF 393 renal): 3370 nM
GI50 (ACHN renal): 1610 nM
TGI (ACHN renal): 3000 nM
GI50 (A549 NSCLC): 1400 nM
TGI (A549 NSCLC): 3040 nM
GI50 (T-47D breast): 1390 nM
TGI (T-47D breast): 3340 nM
GI50 (M14 melanoma): 1840 nM
TGI (M14 melanoma): 3510 nM
GI50 (TK-10 renal): 1950 nM
TGI (TK-10 renal): 3460 nM
GI50 (SK-MEL-2 melanoma): 1870 nM
TGI (SK-MEL-2 melanoma): 3520 nM
GI50 (786-0 renal): 1080 nM
TGI (786-0 renal): 2460 nM
GI50 (SN12C renal): 1480 nM
TGI (SN12C renal): 3200 nM
GI50 (SK-MEL-5 melanoma): 1760 nM
TGI (SK-MEL-5 melanoma): 3220 nM
GI50 (SF-268 CNS): 1890 nM
TGI (SF-268 CNS): 3840 nM
GI50 (A498 renal): 1870 nM
TGI (A498 renal): 3520 nM
GI50 (OVCAR-3 ovarian): 1290 nM
TGI (OVCAR-3 ovarian): 2680 nM
GI50 (BT-549 breast): 1810 nM
TGI (BT-549 breast): 3720 nM
GI50 (HS 578T breast): 2260 nM
TGI (HS 578T breast): 4960 nM
GI50 (NCI-H226 lung): 1820 nM
TGI (NCI-H226 lung): 3530 nM
